Laboratory results published in EP0329904A1, “Use of quinolizine and quinolizinone derivatives in the manufacture of medicaments for the treatment of anxiety” (MERRELL DOW PHARMACEUTICALS INC., priority 1988, dated 1989).
Where a name gives a salt, the structure may show the parent alone.

Test system: Von Bezold-Jarisch Reflex induced by 5-HT
Assay: Von Bezold-Jarisch Reflex induced by 5-HT injected intravenously
Assay type: in vivo
Details: rat
Excerpt: The activity of these compounds against 5-HT can be assessed in vivo by measurement of the effect of the compound on the Von Bezold-Jarisch Reflex induced by 5-HT injected intravenously into the rat (see Paintal A.S., Physiol. Rev. 53, 159-227, 1973; J.R. Fozard, Naunyn-Schmiedeberg's Arch. Pharmacol., 326, 1984, 36-44). The transient cardiac slowing arises from an increased afferent vagus activity arising from stimulation by 5-HT of sensory afferent fibers in and around the heart.

[1] = doses of 0.01-0.1 mg/kg given intravenously
[2] = doses of 0.25-1 mg/kg given orally

| SMILES | suppression of the Von Bezold-Jarisch Reflex response [1] | suppression of the Von Bezold-Jarisch Reflex response [2] |
| --- | --- | --- |
| O=C(OC1CC2CC3CC(C1)N2CC3=O)c1c[nH]c2ccccc12 (stereo not drawn) [endo-hexahydro-8-(3-indolylcarbonyloxy)-2,6-methano-2H-quinolizin-3(4H)one hydrochloride] | suppressed the response dose-dependently | suppressed the response dose-dependently |
| Cc1cc(C)cc(C(=O)OC2CC3CC4CC(C2)N3CC4=O)c1 (stereo not drawn) [endo-8-(3,5-dimethylbenzoyloxy)hexahydro-2,6-methano-2H-quinolizin-3(4H)-one] | suppressed the response dose-dependently | suppressed the response dose-dependently |
